This is an account of results in patent US20260102407A1, “TREATMENT METHODS” (priority 2020, published 2026).

Each structure is given as a SMILES string.

The test system of test [1] is FosB. Put plainly: Matrigel plug assay, FosB staining. To be noted: C57BL/6 mice; 2.5 mg/mouse; 7 days. The test is classed as in vivo. As to the method: Matrigel plug assay. Matrigel (500 μl) containing VEGF-A165 (100 ng/ml), heparin (10U) and BT2 or BT3 (2.5 mg/mouse) or its vehicle (saline containing 0.01% DMSO and 0.5% Tween 80) was injected subcutaneously into the left flanks of male 8 week-old C57BL/6 mice. After 7d the mice were sacrificed by CO2 asphyxiation and the plugs carefully removed. Formalin-fixed paraffin embedded sections were prepared from Matrigel plugs for immunohistological assessment. Heat-induced epitope retrieval was applied to all deparaffinized sections (4 μm Superfrost slides) in citrate buffer, pH 6 for 5 min at 110° C. Immunostaining for all groups with a given antibody was performed simultaneously and development time was identical. […]
Slides were scanned using an Aperio ScanScope XT slide scanner (Leica Biosystems, Mt Waverley, Vic Australia) and images captured using ImageScope software (Leica Biosystems). Positive intraplug staining was assessed using Image-Pro Plus software (Cybernetics, Bethesda, MD) in 5-12 randomly selected fields of view for each plug photographed under 10× (CD31), 20× (VCAM-1) and 40× (FosB) objectives and expressed as integrated optical density (IOD, the product of calibrated intensity (optical density) and area, i.e. IOD=intensity (mean)×area) (Media Cybernetics) (Liu, H., et al., Sci Rep 6, 21319 (2016)). […]

Test [2] has as its system VCAM-1. The test is described as follows: Immunohistochemical staining of rat retina, VCAM-1. In kind it is in vivo. To be noted: lasered rat retinas. The text has this:
Rat choroidal laser injury model. Male Brown Norway pigmented rats (8-14 week-old) were anesthetized by an intramuscular injection of Rompun® (xylazine)/Imalgene® (ketamine). Pupils were dilated by instillation of one drop of 0.5% tropicamide before laser burn. Six burns were created in both eyes on Day 0 by applying 170 mW of 532 nm laser light (Viridis laser, Quantel, France) on 75 μm spots around the optic nerve, between the main retinal vessel branches, for 0.1s, through the slit lamp and contact lens. Production of a bubble at the time of laser application confirmed the rupture of Bruch's membrane. […] After anaesthesia, 10% sodium fluorescein (250 μl/100 g body weight) was injected subcutaneously, and ocular fluorescence was recorded 10 min after dye injection. Fluorescein leakage was evaluated on Days 14 and 21 in the angiograms by two examiners masked to the study groups and graded for fluorescein intensity as follows: score 0: no leakage; 1: slightly stained; 2: moderately stained; 3: strongly stained.
Immunohistochemical staining of rat retina. […] IOD of positive staining (red chromogen) was assessed for CD31, VEGF-A165, pERK, FosB and VCAM-1 using Image-Pro Plus software (Cybernetics, Bethesda, MD). IOD in IPL and INL was quantified for CD31; OPL to OS for VEGF-A165; INL to ONL for pERK; GCL to OS for FosB; OLM for VCAM-1, using Image-Pro Plus. […]

Consider `CCOC(=O)Nc1ccc2c(c1)C(=O)N(CC)c1ccccc1O2` [BT2, (10-ethyl-11-oxo-10,11-dihydro-dibenzo[b,f][1,4]oxazepin-2-yl)-carbamic acid ethyl ester], for which, in test [1], the “FosB immunoreactivity in Matrigel plugs” value is “inhibited”. Besides, in test [2], the “inducible VCAM-1 expression in the OLM” value is listed as “reduced inducible VCAM-1 expression”.
